Laboratory results reported in publication PMC10388301, “Exploring the Anticancer Activity of Tamoxifen-Based Metal Complexes Targeting Mitochondria” (Journal of Medicinal Chemistry, 2023).

Target: T1, thioredoxin reductase 1 (TrxR1, cytosolic) (Rattus norvegicus, UniProt O89049)
T1 construct: gene Txnrd1; highly purified enzyme from rat liver
T1 sequence (O89049 1-499): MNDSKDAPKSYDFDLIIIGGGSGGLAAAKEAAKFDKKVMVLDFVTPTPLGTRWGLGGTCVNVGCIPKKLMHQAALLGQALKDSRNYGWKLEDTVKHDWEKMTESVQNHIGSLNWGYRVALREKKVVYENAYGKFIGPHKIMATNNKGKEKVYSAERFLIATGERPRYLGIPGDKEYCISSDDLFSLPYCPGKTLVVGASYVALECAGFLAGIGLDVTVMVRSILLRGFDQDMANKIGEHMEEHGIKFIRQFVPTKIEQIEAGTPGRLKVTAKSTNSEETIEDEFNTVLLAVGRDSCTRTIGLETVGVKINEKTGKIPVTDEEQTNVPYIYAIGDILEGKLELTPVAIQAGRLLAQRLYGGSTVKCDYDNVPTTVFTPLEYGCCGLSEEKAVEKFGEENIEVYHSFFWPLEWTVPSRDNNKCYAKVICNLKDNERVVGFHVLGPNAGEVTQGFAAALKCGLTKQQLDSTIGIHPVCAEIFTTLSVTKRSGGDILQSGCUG
Assay: DTNB reduction assay on purified rat liver TrxR1; BIAM labelling of Sec/Cys residues
Format: biochemical

Q: Which “DTNB reduction assay on purified rat liver TrxR1; BIAM labelling of Sec/Cys resi” value does the source give for `CCC(=C(c1ccc(OC)cc1)c1ccc(OC)cc1)c1cc[n+]2c(c1)-c1cccc[n+]1[Au-]2([Cl])[Cl].F[P-](F)(F)(F)(F)F` [AuTAML] here?
A: The value was “a strong inhibition of TrxR1 activity was observed at low nanomolar concentrations of the Au(III) complex”.
